Measured values: patent publication US20240408053A1, “ENTERITIS-SUPPRESSING COMPOSITION” (KOBE GAKUIN EDUCATIONAL FOUNDATION, priority 2021, published 2024)

Key:
Assay type in all cases: in vivo, mice
IL-6 = IL-6 expression in colon tissue (qRT-PCR, ELISA); details: group ES: 2.0% v/v ethanol diet + 2.5 mg sesaminol per day oral, 2 weeks, vs group E; higher than group C
Source text: (§1) It has been reported that chronic consumption of an excessive amount of ethanol can induce inflammation associated with tumor formation in colon tissue. Therefore, in order to verify whether oral administration of sesaminol has a preventive effect on ethanol-induced colitis, the expression levels of inflammatory cytokines (TNF-α and IL-6) and chemokine (MCP-1) in the large intestinal lamina propria of the mice in the four groups (groups C, S, E, and ES) were examined by qRT-PCR and ELISA. The NF-κB activity in the mice in the four groups was also examined. NF-κB is a transcription factor that is involved in expression of genes regulating inflammation and is activated by exposure of immune cells to pro-inflammatory factors.
(§2) Total RNA was extracted from colon tissue samples. […]
(§3) A colon tissue sample (100 mg) was homogenized in 1 mL of an M-PER mammalian protein extraction reagent (Pierce) containing a diluent of a protease inhibitor cocktail (Nacalai Tesque, Inc.), and the resulting homogenate was centrifuged at 20,000× g at 4° C. for 15 minutes. The protein concentration of the supernatant was measured with a protein assay reagent (Bio-Rad Laboratories, Inc.), and equal amounts of proteins were used for analysis of the expression levels of TNF-α, IL-6, and MCP-1 by ELISA.

8-OHdG = 8-OHdG level in colon tissue (immunohistochemical staining, ELISA); details: group ES: 2.0% v/v ethanol diet + 2.5 mg sesaminol per day oral, 2 weeks, group E highest
Source text: The present inventors have previously reported that chronic oral administration of ethanol to mice increases oxidative stress in colon tissue (NPL 13). Therefore, in order to verify the effect of oral administration of sesaminol on oxidative stress in the colon induced by chronic oral consumption of ethanol, the levels of oxidative stress markers (8-hydroxy-2′-deoxyguanosine (8-OHdG), malondialdehyde (MDA), and 4-hydroxyalkenals (HAE)) were examined in colon tissue of the mice in groups C, S, E, and ES.
The level of 8-OHdG, which is an oxidative stress marker in tissue, was examined by immunohistochemical staining and ELISA.
Immunostained tissue specimens were prepared in the same manner as the method described above, except that the primary antibody was rabbit anti-8-OHdG monocolonal antibody.
A colon tissue sample (50 mg) was homogenized in 1 mL of DNAzol reagent, and the resulting homogenate was centrifuged at 20,000× g at 4° C. for […]. DNA was then isolated from the supernatant by ethanol precipitation and treated with an 8-OHdG assay preparation reagent set (FUJIFILM Wako Pure Chemical
Corporation). Equal amounts of the extracted DNA were used for analysis of the 8-OHdG level using an OxiSelect oxidative DNA damage ELISA kit (Cell Biolabs, Inc.).

TNF-α = TNF-α expression in colon tissue (qRT-PCR, ELISA); details: group ES: 2.0% v/v ethanol diet + 2.5 mg sesaminol per day oral, 2 weeks, vs group E; higher than group C
Source text: as §1, §2, §3

occludin = assay: Western blotting of occludin in colon tissue; details: group ES: 2.0% v/v ethanol diet + 2.5 mg sesaminol per day oral, 2 weeks, vs group E; lower than group C
Source text: (§4) Acetaldehyde, which accumulates during ethanol metabolism, is known to disrupt intestinal tight junctions (TJs) via dissociation of colonic epithelium TJ proteins (ZO-1, occludin, and claudin-1) from the cytoskeleton. […] Therefore, whether oral administration of sesaminol would affect ethanol-induced intestinal barrier dysfunction was examined by analyzing the expression levels of colonic epithelial TJ proteins and the plasma LPS level in the mice in the four groups (groups C, S, E, and ES).
WB was performed in the same manner as in Example 4 above. The following primary antibodies were used. • Anti-mouse zonula occludens-1 protein (ZO-1) rabbit polyclonal antibody • Anti-mouse occludin rabbit polyclonal antibody • Anti-mouse claudin-1 rabbit polyclonal antibody

mouse gut microbiota = assay: Structural analysis of mouse gut microbiota (16S rRNA sequencing); details: 4 weeks
Experimental: Additionally, the gut microbiota structures of the mice in each group (groups C, E, S, and ES) were analyzed.
The mouse gut microbiota 16S rRNA sequencing was outsourced to MyMetagenome Co., Ltd.
Immediately after collection, mouse feces was treated with liquid nitrogen and stored at −80° C. While the fecal samples were frozen, treatment was performed, and the extracted nucleic acids were used as samples for sequence analysis. The measurement was performed using a next-generation sequencer (NGS) (MiniSeq, Illumina, K.K.), and the results of 16S rRNA genes (the V1-V2 region) and sequences of 5,000 reads or more from the extracted nucleic acids were used for analysis. For the analysis of bacterial flora structure, raw sequence data processing and well-known sequence data analysis were performed, and the analysis was clustered at a 96% pairwise identity cutoff for 16S reads. Similarity values were assigned to the phylum and genus categories.

CYP2E1 = assay: Western blotting of CYP2E1 in colon tissue; details: group ES: 2.0% v/v ethanol diet + 2.5 mg sesaminol per day oral, 2 weeks, vs group E
Source text: Chronic consumption of an excessive amount of ethanol has been reported to increase CYP2E1 and iNOS levels and cause ethanol-induced oxidative stress in the liver and other tissues. The nuclear factor erythroid 2-related factor 2/heme oxygenase-1 (Nrf2/HO-1) system has also been reported to be widely involved in the protection of cells from oxidative damage. Therefore, the expression levels of these proteins (CYP2E1, iNOS, and HO-1) in mouse colon tissue in the four groups (groups C, S, E, and ES) were examined by western blotting (WB).
as §3, with “subjected to SDS-PAGE. Electrophoresed proteins in” for “used for analysis of”, “gel were transferred to a PVDF membrane,” for “expression levels of TNF-α, IL-6,”, “the membrane was immersed in a blocking reagent (room temperature, overnight). The primary antibody (rabbit polyclonal antibody) was then reacted. […] The band intensities were quantified with ImageJ.” for “MCP-1 by ELISA.”

LPS = assay: Plasma LPS level (LAL assay), 2 weeks; details: group ES: 2.0% v/v ethanol diet + 2.5 mg sesaminol per day oral, vs group E, higher than group C
Source text: as §4
The plasma LPS concentration was measured with a limulus amebocyte lysate (LAL) assay.

[1] = group S: 2.5 mg sesaminol per day oral, no ethanol, vs group C

Structure (SMILES): Oc1cc2c(cc1C1OCC3C(c4ccc5c(c4)OCO5)OCC13)OCO2 (centres unmarked) [Sesaminol]
- expression level of IL-6 (mRNA by qRT-PCR, protein by ELISA) (IL-6): significantly lower than those in group E
- 8-OHdG level in colon tissue (8-OHdG): next highest level
- expression level of TNF-α (mRNA by qRT-PCR, protein by ELISA) (TNF-α): significantly lower than those in group E
- expression level of occludin (occludin): significantly higher than those in group E
- bacterial flora structure at the phylum level (abnormalities observed in group E: Tenericutes, Verrucomicrobia, Proteobacteria, Actinobacteria increased) (mouse gut microbiota; group ES: 2.0% v/v ethanol diet + 2.5 mg sesaminol per day oral): recovered to the same level as group C
- relative abundance of the family Lachnospiraceae, the family Ruminococcaceae, and the family Tannerellaceae (mouse gut microbiota; group ES: 2.0% v/v ethanol diet + 2.5 mg sesaminol per day oral, group E significant decrease): recovered to the same level as that in group C
- relative abundance of the family Enterobacteriaceae and the family Streptococcaceae (mouse gut microbiota; group ES: 2.0% v/v ethanol diet + 2.5 mg sesaminol per day oral, group E significant increase): recovered to the same level as that in group C
- obligate anaerobes of the phylum Bacteroidetes and the phylum Firmicutes (short-chain fatty acids-producing bacteria) (mouse gut microbiota; [1]): increase in obligate anaerobes of the phylum Bacteroidetes and the phylum Firmicutes
- short-chain fatty acid-producing bacteria of the family Lachnospiraceae, the family Ruminococcaceae, and the family Tannerellaceae (mouse gut microbiota; [1]): increased in group S alone compared with group C
- CYP2E1 expression level (CYP2E1): significantly lower than that in group E
- plasma LPS level (LPS): significantly lower than that in group E
